From patent US9695133B2, “Quinazolinone-based oncogenic-RAS-selective lethal compounds and their use” (THE TRUSTEES OF COLUMBIA UNIVERSITY IN THE CITY OF NEW YORK, priority 2012, dated 2017)

System: HT-1080 cells
Assay: Metabolite profiling (LC-MS/MS) upon erastin treatment
Type: cell-based, human
Details: 5 μg/mL erastin 5 h
Procedure: 2 million HT-1080 cells were seeded in 10 cm culture dishes. […] 4 mL of cold 80% methanol was added to the cell monolayer to extract polar metabolites using a cell scraper. The cell lysate/methanol mixture was transferred to a 15 mL tube and centrifuged at 2,000×g at 4° C. for 10 minutes to pellet debris and proteins. The supernatant was transferred to a new tube and stored at −80° C. for liquid chromatography-mass spectrometry/mass spectrometry (LC-MS/MS) analysis. For lipid extract preparation, 3 mL of cold 100% isopropanol was added to the cell monolayer to scrape out cells. The resulting cell lysate/isopropanol mixture was transferred to a new 15 mL tube and centrifuged at 2,000×g at 4° C. for 10 minutes. The cleared supernatant was transferred to a new tube and stored at −20° C. for LC-MS/MS analysis.
The metabolite extract was subjected to LC-MS/MS analysis to determine the quantity of each metabolite in each sample.

## CCOc1ccccc1-n1c(C(C)N2CCN(C(=O)COc3ccc(Cl)cc3)CC2)nc2ccccc2c1=O (stereo not drawn) [erastin]
  G6P Erastin/DMSO: 1.134
  G6P log2 (Erastin/DMSO): 0.181
  GABA Erastin/DMSO: 1.173
  GABA log2 (Erastin/DMSO): 0.2297
  GDP Erastin/DMSO: 0.8497
  GDP log2 (Erastin/DMSO): −0.235
  GMP Erastin/DMSO: 1.066
  GMP log2 (Erastin/DMSO): 0.09204
  IMP Erastin/DMSO: 1.065
  IMP log2 (Erastin/DMSO): 0.09035
  N-carbomoyl-beta-alanine Erastin/DMSO: 0.7958
  N-carbomoyl-beta-alanine log2 (Erastin/DMSO): −0.3296
  NAD Erastin/DMSO: 0.9157
  NAD log2 (Erastin/DMSO): −0.127
  NADH Erastin/DMSO: 0.8051
  NADH log2 (Erastin/DMSO): −0.3128
  NMMA Erastin/DMSO: 0.9886
  NMMA log2 (Erastin/DMSO): −0.01661
  OH-phenylpyruvate Erastin/DMSO: 0.8442
  OH-phenylpyruvate log2 (Erastin/DMSO): −0.2443
  PEP Erastin/DMSO: 1.147
  PEP log2 (Erastin/DMSO): 0.1975
  SDMA Erastin/DMSO: 0.9505
  SDMA log2 (Erastin/DMSO): −0.07329
  UDP Erastin/DMSO: 1.002
  UDP log2 (Erastin/DMSO): 0.002894
  UDP-galactose/UDP-glucose Erastin/DMSO: 0.9003
  UDP-galactose/UDP-glucose log2 (Erastin/DMSO): −0.1516
  UDP-glucuronate Erastin/DMSO: 0.9339
  UDP-glucuronate log2 (Erastin/DMSO): −0.09865
  UMP Erastin/DMSO: 1.049
  UMP log2 (Erastin/DMSO): 0.06891
  XMP Erastin/DMSO: 0.8599
  XMP log2 (Erastin/DMSO): −0.2178
  acetylcholine Erastin/DMSO: 0.8307
  acetylcholine log2 (Erastin/DMSO): −0.2676
  aconitate Erastin/DMSO: 1.036
  aconitate log2 (Erastin/DMSO): 0.05158
  adenine Erastin/DMSO: 1.254
  adenine log2 (Erastin/DMSO): 0.3261
  adenosine Erastin/DMSO: 1.376
  adenosine log2 (Erastin/DMSO): 0.4605
  adipate Erastin/DMSO: 1.091
  adipate log2 (Erastin/DMSO): 0.1256
  alanine Erastin/DMSO: 1.061
  alanine log2 (Erastin/DMSO): 0.0857
  allantoin Erastin/DMSO: 0.9512
  allantoin log2 (Erastin/DMSO): −0.07213
  alpha-glycerophosphate Erastin/DMSO: 0.7556
  alpha-glycerophosphate log2 (Erastin/DMSO): −0.4043
  alpha-glycerophosphocholine Erastin/DMSO: 0.2194
  alpha-glycerophosphocholine log2 (Erastin/DMSO): −2.188
  alpha-ketoglutarate Erastin/DMSO: 0.9867
  alpha-ketoglutarate log2 (Erastin/DMSO): −0.01926
  arginine Erastin/DMSO: 0.9866
  arginine log2 (Erastin/DMSO): −0.01943
  ascorbate Erastin/DMSO: 1.196
  ascorbate log2 (Erastin/DMSO): 0.2586
  asparagine Erastin/DMSO: 1.069
  asparagine log2 (Erastin/DMSO): 0.09662
  aspartate Erastin/DMSO: 1.017
  aspartate log2 (Erastin/DMSO): 0.02452
  betaine Erastin/DMSO: 0.9528
  betaine log2 (Erastin/DMSO): −0.06976
  cAMP Erastin/DMSO: 1.266
  cAMP log2 (Erastin/DMSO): 0.3404
  carnitine Erastin/DMSO: 0.802
  carnitine log2 (Erastin/DMSO): −0.3183
  carnosine Erastin/DMSO: 0.9657
  carnosine log2 (Erastin/DMSO): −0.0503
  choline Erastin/DMSO: 0.8139
  choline log2 (Erastin/DMSO): −0.2971
  cis/trans hydroxyproline Erastin/DMSO: 1.099
  cis/trans hydroxyproline log2 (Erastin/DMSO): 0.1366
  citrate Erastin/DMSO: 0.974
  citrate log2 (Erastin/DMSO): −0.03805
  citrulline Erastin/DMSO: 1.036
  citrulline log2 (Erastin/DMSO): 0.05057
  cotinine Erastin/DMSO: 0.9037
  cotinine log2 (Erastin/DMSO): −0.146
  creatine Erastin/DMSO: 0.8675
  creatine log2 (Erastin/DMSO): −0.205
  creatinine Erastin/DMSO: 0.972
  creatinine log2 (Erastin/DMSO): −0.04091
  cystamine Erastin/DMSO: 1.09
  cystamine log2 (Erastin/DMSO): 0.1248
  cystathionine Erastin/DMSO: 1.263
  cystathionine log2 (Erastin/DMSO): 0.3368
  cytidine Erastin/DMSO: 6.079
  cytidine log2 (Erastin/DMSO): 2.604
  cytosine Erastin/DMSO: 0.8863
  cytosine log2 (Erastin/DMSO): −0.1741
  dCMP Erastin/DMSO: 0.9184
  dCMP log2 (Erastin/DMSO): −0.1228
  dGMP Erastin/DMSO: 1.052
  dGMP log2 (Erastin/DMSO): 0.07275
  dTMP Erastin/DMSO: 0.6985
  dTMP log2 (Erastin/DMSO): −0.5178
  dUMP Erastin/DMSO: 0.6787
  dUMP log2 (Erastin/DMSO): −0.5592
  dimethylglycine Erastin/DMSO: 0.9338
  dimethylglycine log2 (Erastin/DMSO): −0.09885
  folate Erastin/DMSO: 1.032
  folate log2 (Erastin/DMSO): 0.04552
  fumarate Erastin/DMSO: 0.9822
  fumarate log2 (Erastin/DMSO): −0.02598
  glucose Erastin/DMSO: 0.9717
  glucose log2 (Erastin/DMSO): −0.04147
  glucose/fructose/galactose Erastin/DMSO: 1.011
  glucose/fructose/galactose log2 (Erastin/DMSO): 0.01526
  glucuronate Erastin/DMSO: 0.61
  glucuronate log2 (Erastin/DMSO): −0.7132
  glutamate Erastin/DMSO: 1.019
  glutamate log2 (Erastin/DMSO): 0.02762
  glutamine Erastin/DMSO: 1.015
  glutamine log2 (Erastin/DMSO): 0.02096
  glutathione oxidized Erastin/DMSO: 0.3235
  glutathione oxidized log2 (Erastin/DMSO): −1.628
  glutathione reduced Erastin/DMSO: 0.007019
  glutathione reduced log2 (Erastin/DMSO): −7.154
  glyceraldehyde-3-phosphate Erastin/DMSO: 1.192
  glyceraldehyde-3-phosphate log2 (Erastin/DMSO): 0.2529
  glycerol Erastin/DMSO: 1.058
  glycerol log2 (Erastin/DMSO): 0.08176
  glycine Erastin/DMSO: 0.9723
  glycine log2 (Erastin/DMSO): −0.04055
  glycochenodeoxycholate Erastin/DMSO: 1.067
  glycochenodeoxycholate log2 (Erastin/DMSO): 0.09335
  glycocholate Erastin/DMSO: 0.9975
  glycocholate log2 (Erastin/DMSO): −0.003654
  glycodeoxycholate Erastin/DMSO: 1.054
  glycodeoxycholate log2 (Erastin/DMSO): 0.07552
